Test results as given in ChEMBL document CHEMBL1201862, “PubChem BioAssay data set” (2004).
Activity calls are given as the source filed them.

How the values were obtained:
[1] = system: BJ; test: cytotoxicity toward BJ-TERT fibroblasts, dose response, cell-based, RAS-independent, luminescence (AID 1933); assay type: functional; details: Homo sapiens
[2] = system: BJ; test: cells; assay type: functional, cell-based; details: Homo sapiens
[3] = system: BJ; test: cytotoxicity toward BJ-TERT-LT-ST fibroblasts, dose response, cell-based, RAS-independent, luminescence (AID 1935); assay type: functional; details: Homo sapiens;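 also: BJ fibroblasts immortalized with TERT plus LT and ST oncogenes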
[4] = cytotoxicity toward DRD oncogenic fibroblasts, dose response, cell-based, non-viral oncogenic, luminescence (AID 1934); assay type: functional; details: Homo sapiens
[5] = biological target: T1, Microphthalmia-associated transcription factor (Homo sapiens, UniProt O75030); test: TRPM1 promoter luciferase signal decrease, dose response, MITF inhibitor project, cell-based, SK-MEL-5, cherry-picked, set 3 (AID 493073); assay type: functional
T1 sequence (O75030 whole entry): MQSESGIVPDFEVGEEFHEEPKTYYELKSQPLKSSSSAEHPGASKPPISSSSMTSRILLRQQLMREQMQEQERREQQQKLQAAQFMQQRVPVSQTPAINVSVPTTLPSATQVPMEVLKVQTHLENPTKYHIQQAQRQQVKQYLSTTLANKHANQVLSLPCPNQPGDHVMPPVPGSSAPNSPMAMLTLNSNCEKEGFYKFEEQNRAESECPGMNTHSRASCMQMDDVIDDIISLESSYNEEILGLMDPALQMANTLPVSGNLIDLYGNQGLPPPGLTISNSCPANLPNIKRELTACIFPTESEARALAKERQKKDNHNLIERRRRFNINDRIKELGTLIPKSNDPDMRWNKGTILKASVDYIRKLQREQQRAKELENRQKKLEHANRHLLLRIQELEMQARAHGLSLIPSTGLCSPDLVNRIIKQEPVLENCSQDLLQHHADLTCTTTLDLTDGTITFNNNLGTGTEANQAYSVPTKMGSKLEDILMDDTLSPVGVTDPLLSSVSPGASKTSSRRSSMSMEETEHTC

[6] = system: BJ; test: cytotoxicity toward Ras-transformed BJeLR fibroblasts, dose response, cell-based, alamar blue fluorescence, cherrypicked samples (AID 2631); assay type: functional; details: Homo sapiens;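 also: confirmatory dose-response assay in RAS-dependent BJ fibroblasts engineered with TERT, LT and ST, with cytotoxicity read by fluorescence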
[7] = biological target: FAD-linked sulfhydryl oxidase ALR (Homo sapiens, UniProt P55789); test: inhibitors of human ALR sulfhydryl oxidase, dose response, biochemical, H2O2 detection, luminescence, cherry-pick (AID 493248)
[8] = biological target: T2, Endoribonuclease toxin MazF (Escherichia coli K-12, UniProt P0AE70); test: MazF toxin RNase activators, dose response, biochemical, fluorescence, single-stranded RNA substrate, uHTS hits (AID 588481); assay type: functional
T2 sequence (P0AE70 whole entry): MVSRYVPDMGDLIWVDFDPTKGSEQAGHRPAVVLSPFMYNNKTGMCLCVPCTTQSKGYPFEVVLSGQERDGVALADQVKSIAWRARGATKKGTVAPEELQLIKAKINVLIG

[9] = biological target: T2, Endoribonuclease toxin MazF; test: fluorescent RNA oligo signal without MazF, dose response, counter-screen for MazEF activator project, biochemical, fluorescence, single-stranded RNase substrate (AID 588502); assay type: functional
[10] = biological target: T3, Caspase-6 (Homo sapiens, UniProt P55212); test: human caspase-6 inhibitors, dose response, biochemical, VEID-R110 fluorescence, cherry-pick (AID 720632)
T3 sequence (P55212 whole entry): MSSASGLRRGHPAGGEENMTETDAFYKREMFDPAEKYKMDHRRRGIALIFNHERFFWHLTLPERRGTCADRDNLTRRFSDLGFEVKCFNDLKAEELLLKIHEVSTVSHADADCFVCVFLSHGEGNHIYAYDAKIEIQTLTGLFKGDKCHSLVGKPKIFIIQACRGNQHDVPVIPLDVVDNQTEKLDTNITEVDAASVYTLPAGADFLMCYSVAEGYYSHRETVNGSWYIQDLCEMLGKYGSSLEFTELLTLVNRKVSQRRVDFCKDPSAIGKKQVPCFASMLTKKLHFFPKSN

[11] = biological target: T4, Apoptotic protease-activating factor 1 (Homo sapiens, UniProt O14727); assay type: functional
T4 sequence (O14727 whole entry): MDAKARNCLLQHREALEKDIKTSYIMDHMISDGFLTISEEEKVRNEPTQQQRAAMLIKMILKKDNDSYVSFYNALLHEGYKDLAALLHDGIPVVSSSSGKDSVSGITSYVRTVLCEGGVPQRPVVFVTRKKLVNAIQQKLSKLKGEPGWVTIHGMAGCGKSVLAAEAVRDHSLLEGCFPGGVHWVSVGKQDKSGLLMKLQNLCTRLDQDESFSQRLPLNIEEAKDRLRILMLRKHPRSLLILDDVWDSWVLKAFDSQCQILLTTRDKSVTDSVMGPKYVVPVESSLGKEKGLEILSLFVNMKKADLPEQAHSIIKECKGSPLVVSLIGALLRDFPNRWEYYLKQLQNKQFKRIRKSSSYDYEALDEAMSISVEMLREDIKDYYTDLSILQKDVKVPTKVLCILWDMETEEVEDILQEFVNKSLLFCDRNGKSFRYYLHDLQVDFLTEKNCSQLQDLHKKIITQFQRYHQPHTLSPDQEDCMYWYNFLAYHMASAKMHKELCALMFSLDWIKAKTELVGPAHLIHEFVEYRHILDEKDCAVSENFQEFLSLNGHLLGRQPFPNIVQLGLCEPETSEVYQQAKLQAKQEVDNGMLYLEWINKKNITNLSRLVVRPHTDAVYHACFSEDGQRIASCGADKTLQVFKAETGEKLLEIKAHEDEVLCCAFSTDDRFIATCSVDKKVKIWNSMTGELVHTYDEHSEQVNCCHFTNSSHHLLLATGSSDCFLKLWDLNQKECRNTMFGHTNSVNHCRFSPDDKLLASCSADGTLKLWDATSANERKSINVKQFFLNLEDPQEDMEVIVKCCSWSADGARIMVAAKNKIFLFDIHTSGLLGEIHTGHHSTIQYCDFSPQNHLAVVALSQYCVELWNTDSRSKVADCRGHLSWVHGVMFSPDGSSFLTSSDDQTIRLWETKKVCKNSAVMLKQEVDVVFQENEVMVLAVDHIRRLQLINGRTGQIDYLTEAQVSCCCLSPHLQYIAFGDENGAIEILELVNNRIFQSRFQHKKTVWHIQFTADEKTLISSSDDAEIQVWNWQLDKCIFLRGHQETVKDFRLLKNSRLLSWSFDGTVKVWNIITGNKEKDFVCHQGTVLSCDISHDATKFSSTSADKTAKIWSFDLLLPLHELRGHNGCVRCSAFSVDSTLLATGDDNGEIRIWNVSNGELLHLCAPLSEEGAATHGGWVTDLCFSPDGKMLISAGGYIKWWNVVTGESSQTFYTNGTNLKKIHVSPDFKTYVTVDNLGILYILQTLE

[12] = biological target: Paired box protein Pax-8 (Homo sapiens, UniProt Q06710); test: inhibitors of PAX8-driven TPO luciferase reporter, dose response, RMG-I cells, cherry-pick (AID 687027); assay type: functional, cell-based;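 also: luciferase reporter driven by Pax8 target thyroperoxidase promoter measured by SteadyGlo luminescence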
[13] = biological target: T5, Histone-lysine N-methyltransferase NSD2 (Homo sapiens, UniProt O96028); assay type: biochemical
T5 sequence (O96028 whole entry): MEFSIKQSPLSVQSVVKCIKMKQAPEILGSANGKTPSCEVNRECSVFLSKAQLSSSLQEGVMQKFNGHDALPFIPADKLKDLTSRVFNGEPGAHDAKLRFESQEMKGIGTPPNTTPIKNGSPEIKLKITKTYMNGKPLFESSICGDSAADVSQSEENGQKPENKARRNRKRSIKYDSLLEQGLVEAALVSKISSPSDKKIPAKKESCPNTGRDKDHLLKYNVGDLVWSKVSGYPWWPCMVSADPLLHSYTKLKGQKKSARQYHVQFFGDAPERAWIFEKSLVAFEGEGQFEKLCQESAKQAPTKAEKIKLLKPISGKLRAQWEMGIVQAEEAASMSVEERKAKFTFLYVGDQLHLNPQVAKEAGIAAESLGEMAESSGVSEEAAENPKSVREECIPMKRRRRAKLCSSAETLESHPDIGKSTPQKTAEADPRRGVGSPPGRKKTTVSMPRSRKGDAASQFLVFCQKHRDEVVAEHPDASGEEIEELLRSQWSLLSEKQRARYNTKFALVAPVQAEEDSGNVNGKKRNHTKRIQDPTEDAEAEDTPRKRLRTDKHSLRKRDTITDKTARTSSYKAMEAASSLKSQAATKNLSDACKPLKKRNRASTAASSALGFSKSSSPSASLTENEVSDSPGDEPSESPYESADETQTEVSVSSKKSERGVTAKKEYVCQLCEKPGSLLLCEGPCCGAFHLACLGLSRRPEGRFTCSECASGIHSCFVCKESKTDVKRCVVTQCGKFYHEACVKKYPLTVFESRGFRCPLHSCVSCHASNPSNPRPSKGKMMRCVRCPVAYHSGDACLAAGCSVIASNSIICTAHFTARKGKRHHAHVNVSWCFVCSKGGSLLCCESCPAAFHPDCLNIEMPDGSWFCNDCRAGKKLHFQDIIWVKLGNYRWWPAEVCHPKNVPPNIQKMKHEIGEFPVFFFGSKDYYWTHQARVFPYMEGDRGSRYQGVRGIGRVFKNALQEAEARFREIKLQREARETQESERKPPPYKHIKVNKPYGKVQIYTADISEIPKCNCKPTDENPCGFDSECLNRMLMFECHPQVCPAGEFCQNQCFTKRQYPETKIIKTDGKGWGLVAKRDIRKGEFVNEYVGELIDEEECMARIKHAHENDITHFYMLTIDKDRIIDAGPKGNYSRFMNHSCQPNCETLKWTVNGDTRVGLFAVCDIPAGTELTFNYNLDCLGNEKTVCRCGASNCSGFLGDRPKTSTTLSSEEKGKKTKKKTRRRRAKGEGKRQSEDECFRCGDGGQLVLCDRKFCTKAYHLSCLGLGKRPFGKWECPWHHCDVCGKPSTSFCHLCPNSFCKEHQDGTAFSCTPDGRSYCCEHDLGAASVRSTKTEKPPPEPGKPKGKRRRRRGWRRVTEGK

[14] = system: INS1; test: beta cell apoptosis inhibitors, cytokine rescue, dose response, luminescence, retest (AID 449756); assay type: functional, cell-based; details: Rattus norvegicus;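 also: cell death triggered by IL-1 beta plus TNF-alpha plus IFN-gamma mixture; protective hits raise ATP signal compared with cytokine alone wells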

Chain of Paired box protein Pax-8 (Q06710 whole entry): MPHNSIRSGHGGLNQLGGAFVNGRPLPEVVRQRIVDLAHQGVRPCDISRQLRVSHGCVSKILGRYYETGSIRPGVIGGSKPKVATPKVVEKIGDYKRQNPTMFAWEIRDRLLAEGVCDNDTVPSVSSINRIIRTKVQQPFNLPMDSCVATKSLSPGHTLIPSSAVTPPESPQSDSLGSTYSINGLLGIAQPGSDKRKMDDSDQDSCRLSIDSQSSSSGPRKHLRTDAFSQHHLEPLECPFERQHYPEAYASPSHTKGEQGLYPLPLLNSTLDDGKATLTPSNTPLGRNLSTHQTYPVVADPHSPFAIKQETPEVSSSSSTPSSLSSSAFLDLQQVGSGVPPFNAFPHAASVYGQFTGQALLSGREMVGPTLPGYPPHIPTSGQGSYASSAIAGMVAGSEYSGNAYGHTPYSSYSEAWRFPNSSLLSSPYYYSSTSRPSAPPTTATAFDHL
Chain of FAD-linked sulfhydryl oxidase ALR (P55789 whole entry): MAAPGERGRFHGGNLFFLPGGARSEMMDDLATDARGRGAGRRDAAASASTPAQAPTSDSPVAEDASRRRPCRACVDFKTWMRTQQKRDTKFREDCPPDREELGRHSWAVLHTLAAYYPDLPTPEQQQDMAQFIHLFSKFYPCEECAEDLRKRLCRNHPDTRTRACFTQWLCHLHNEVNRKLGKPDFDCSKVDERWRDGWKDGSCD

## CC(=O)c1cccc(NC(=O)/C=C/c2ccc([N+](=O)[O-])s2)c1
[1]
  EC50: 4.44 µM (active)
[2]
  EC50: > 150 µM (inconclusive)
[3]
  EC50: 4.95 µM (inconclusive)
[4]
  EC50: 5.53 µM (active)
[5]
  AC50: 7.16 µM (active)
[6]
  EC50: 0.545 µM (inconclusive)

## NNS(=O)(=O)c1ccc2c(c1)Cc1cc(S(=O)(=O)NN)ccc1-2
[7]
  AC50: 0.079 µM (active)
[8]
  EC50: 89.5 µM (inactive)
[9]
  EC50: 4.48 µM (active)
[10]
  AC50: 15.8 µM (active)

## COCCN1C=C2C(=O)C(C)(OC(=O)CCC(=O)OC)C(=O)C(Br)=C2C=C1c1ccc(OC)cc1 (configuration not stated)
[11]
  IC50: 11 µM (active)

## CCCCn1c(N)c(N(CCC(C)C)C(=O)COC(=O)c2ccc([N+](=O)[O-])s2)c(=O)[nH]c1=O
[12]
  AC50: 8.14 µM (active)
[13]
  AC50: 12.3 µM (active)

## CCCCn1cc[n+](C2=C([N-]S(=O)(=O)c3ccc(Br)cc3)C(=O)c3ccccc3C2=O)c1
[11]
  IC50: 8.28 µM (active)
[14]
  AC50: 2.86 µM (active)

## CCN(CC)CCNC(=O)c1ccc(CS(=O)(=O)c2ccccc2C)o1
[13]
  AC50: > 20 µM (inactive)

## CCOc1ccc(NC(=O)CN(C)C(=O)c2ccc(COc3ccccc3)cc2)cc1OCC
[11]
  IC50: > 100 µM (inactive)
